Measurements as given in publication PMC6813166 (CPT: Pharmacometrics & Systems Pharmacology, 2019).

Tests used:
Population PK analysis = assay type: in vivo, human; conditions: for V1, final model estimate (RSE%): apparent volume of the central compartment; for V2, final model estimate (RSE%): apparent volume of the peripheral compartment; for BSV in V1, final model CV% (shrink) / BSV in V2, final model CV% (shrink): between-subject variability; for Q, final model estimate (RSE%): intercompartmental clearance; for CL, final model estimate (RSE%): population PK, healthy volunteers and patients, i.v. infusion; for Covariate on CL: CrCL (power), final model estimate (RSE%): power relationship centered on the median; for Proportional Error, final model CV% (shrink): residual variability
[1] = imipenem monotherapy, in vivo animal models; cited from earlier work
[2] = patients; cited from earlier work
[3] = Simulation of upper and lower clinical bounds of exposure; design: species or system human
[4] = system: Pseudomonas aeruginosa and Enterobacteriaceae; conditions: HF model; cited from earlier work
[5] = 625 mg q6h for 7 days, healthy adult volunteers; cited from earlier work

V1, final model estimate (RSE%) (Population PK analysis) | V2, final model estimate (RSE%) (Population PK analysis) | BSV in V1, final model CV% (shrink) (Population PK analysis) | BSV in V2, final model CV% (shrink) (Population PK analysis) | BSV in V1, bootstrap CV% (Population PK analysis; bootstrap n = 1,000) | BSV in V2, bootstrap CV% (Population PK analysis; bootstrap n = 1,000) | CL, bootstrap estimate (RSE%) (Population PK analysis; bootstrap n = 1,000) | Covariate on CL: CrCL (power), bootstrap estimate (RSE%) (Population PK analysis; bootstrap n = 1,000) | Covariate on V1: WT (power), bootstrap estimate (RSE%) (Population PK analysis; bootstrap n = 1,000) | Proportional Error, bootstrap CV% (Population PK analysis; bootstrap n = 1,000) | Q, bootstrap estimate (RSE%) (Population PK analysis; bootstrap n = 1,000) | V1, bootstrap estimate (RSE%) (Population PK analysis; bootstrap n = 1,000) | V2, bootstrap estimate (RSE%) (Population PK analysis; bootstrap n = 1,000) | Q, final model estimate (RSE%) (Population PK analysis) | CL, final model estimate (RSE%) (Population PK analysis) | Covariate on CL: CrCL (power), final model estimate (RSE%) (Population PK analysis) | Proportional Error, final model CV% (shrink) (Population PK analysis) | SMILES | Covariate on V1: WT (power), final model estimate (RSE%) (Population PK analysis; body weight) | also measured
15.83 (3.2) L | 5.84 (4.0) L | 74.4 (7.4) CV% | 35.0 (52.9) CV% | 74.2 CV% | 34.8 CV% | 12.53 (2.0) L/hour | 0.46 (8.0) | 0.76 (21.6) | 16.1 CV% | 11.15 (6.7) L/hour | 15.76 (3.4) L | 5.86 (3.9) L | 11.09 (6.5) L/hour | 12.53 (2.0) L/hour | 0.46 (8.1) | 16.1 (19.0) CV% | C[C@@H](O)[C@H]1C(=O)N2C(C(=O)O)=C(SCCN=CN)C[C@H]12 [imipenem] | 0.74 (19.1) | Covariate on CL: WT (power), final model estimate (RSE%) (Population PK analysis; body weight): 0.33 (30.5); Covariate on CL: WT (power), bootstrap estimate (RSE%) (Population PK analysis; bootstrap n = 1,000): 0.34 (32.2); Covariate on V1: Healthy, bootstrap estimate (RSE%) (Population PK analysis; bootstrap n = 1,000): −0.28 (10.0); Covariate on V1: Healthy, final model estimate (RSE%) (Population PK analysis; proportional change, healthy volunteers vs patients): −0.29 (9.5); fT > MIC required to achieve 1-log kill to 2-log kill [1]: ~ 30%; concentration lower in peritoneal fluid than in plasma, on average [2]: 25%
11.08 (2.9) L | 6.41 (3.8) L | 59.5 (18.8) CV% | 41.1 (49.8) CV% | 59.4 CV% | 41.0 CV% | 7.02 (2.0) L/hour | 0.75 (8.3) | 0.72 (17.9) | 15.3 CV% | 10.48 (7.0) L/hour | 11.06 (2.9) L | 6.43 (3.6) L | 10.45 (6.8) L/hour | 7.02 (2.0) L/hour | 0.75 (8.3) | 15.3 (14.1) CV% | O=C(NC1CCNCC1)[C@@H]1CC[C@@H]2CN1C(=O)N2OS(=O)(=O)O [relebactam] | 0.70 (15.8) | AUC0-24 hours target [3]: 76.9 µM·h; fAUC0-24 hours/MIC required to achieve 2-log kill [4]: ≥ 7.5; safety and tolerability [5]: safe and well tolerated
